Source: patent US12264146B2, “Rho kinase inhibitor, method for preparing same and uses thereof” (BEIJING INCREASE INNOVATIVE DRUG CO., LTD., priority 2018, dated 2025)
Counter-ions that a name gives are not always drawn.

How the values were obtained:
[1] = tested on: prostacyclin (PGI2); assay: Expression of prostacyclin (PGI2) in EA.Hy926 endothelial cells, ELISA kit; type: cell-based; details: 24 h; for expression of prostacyclin in endothelial cells: Detection result of test compound at low dose (0.4 μM) / expression of prostacyclin in endothelial cells: Detection result of test compound at medium dose (2 μM) / expression of prostacyclin in endothelial cells: Detection result of test compound at high dose (10 μM): EA.Hy926 cell supernatant
Description: (§1) Commercially available cytokine kits were used to detect the effects of the compounds of the present application on vascular endothelium-derived contracting factor endothelin, vascular endothelium-derived relaxing factor endothelial nitric oxide synthase, nitric oxide, and prostacyclin factor. The detection was performed according to the kit instructions. When testing the effect of the compound of the present application on cytokines, a normal control group, a fasudil hydrochloride group, and high-, medium- and low-dose groups of the compounds of the present application were set up for testing. The fasudil hydrochloride used in this test example was purchased from Beijing Sihuan Pharmaceutical Co., Ltd., with the SFDA approval number of H20173349. The EA.Hy926 cells used in this test example were purchased from Suzhou Beina Chuanglian Biotechnology Co., Ltd.
EA.Hy926 cells were taken and inoculated in a 96-well plate at 5×10^4 cells/mL, 100 μL per well, and cultured adherently for 24 hours, then the test compound prepared in DMEM medium was added, and an equal volume of DMEM medium was added in the normal control group, then the cells were cultured at 37° C. for 24 hours, and then the cell supernatant was taken and placed in an EP tube, and centrifuged for 15 min at 3000 r/min and 15° C. The resulting supernatant was transferred to a new EP tube, and then the detection was performed according to the instruction of ELISA kit (purchased from Wuhan Elabscience Biotechnology Co., Ltd., Cat. No. E-EL-0022c), and the detection results were shown in Table 3.

[2] = tested on: subarachnoid hemorrhage in rats; assay: Rat subarachnoid hemorrhage (SAH) model by intravascular puncture, Sugawara bleeding score; type: in vivo; parameters: dose or concentration left out as unconfirmed; details: tail vein injection, 2 administrations 4 h apart, scored 24 h after first administration (Sugawara)
[3] = tested on: nitric oxide (NO); assay: Synthesis and secretion of nitric oxide (NO) in EA.Hy926 endothelial cells, NO detection kit; type: cell-based; details: EA.Hy926 cell supernatant, 24 h
Description: as §1
EA.Hy926 cells were inoculated in a 24-well plate at 5×10^5 cells/mL, 400 μL per well, and cultured adherently for 18 hours, then the supernatant was discarded, the test compound prepared in DMEM medium was added, and an equal volume of DMEM medium was added in the normal control group, then the cells was cultured for 24 h in incubator, and then the cell supernatant was collected and detected according to the instructions of NO detection kit (purchased from Beyotime Institute of Biotechnology, Cat. No. 062617171017), and the detection results were shown in Table 5.

[4] = Toxicity test on endothelial cells EA.hy926, CCK-8 cell viability; type: cell-based; details: human, 1000~0.32 μmol/L, 5-fold dilution, read-out: IC50 of Test compound (cytotoxicity on EA.hy926 cells)
Method in brief: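 EA.hy926 cells (density 5×10^4) were precultured 24 h at 37 °C, 5% CO2, then exposed to compound in DMEM/10% FBS for 24 h, duplicates per concentration. CCK-8 was added for 2.5 h at 37 °C and A450 read. Viability was normalized to PBS normal control minus medium blank, and IC50 was taken from concentration–viability curves.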

## CC(C)[C@@H]1CNCCCN1S(=O)(=O)c1cccc2c(O)nccc12 [Compound R-YK1609, (R)-5-((2-isopropyl-1,4-diazacycloheptan-1-yl)sulfonyl)isoquinolin-1-ol]
[1]
  expression of prostacyclin in endothelial cells: Detection result of test compound at low dose (0.4 μM): 259.20 ± 2.21 pg/mL
  expression of prostacyclin in endothelial cells: Detection result of test compound at medium dose (2 μM): 260.34 ± 7.94 pg/mL
  expression of prostacyclin in endothelial cells: Detection result of test compound at high dose (10 μM): 238.68 ± 3.34 pg/mL
[2]
  Cerebral hemorrhage volume score (x ± s): 12.27 ± 2.02
[3]
  nitric oxide secretion in endothelial cells: Detection result of test compound at low dose (0.4 μM): 0.978 ± 0.028 μm
  nitric oxide secretion in endothelial cells: Detection result of test compound at medium dose (2 μM): 1.014 ± 0.051 μm
  nitric oxide secretion in endothelial cells: Detection result of test compound at high dose (10 μM): 1.115 ± 0.006 μm
[4]
  IC50 at 24 h: 327 µM

## CC[C@@H]1CNCCCN1S(=O)(=O)c1cccc2c(OC)nccc12 [Compound R-YK1610, (R)-5-((2-ethyl-1,4-diazacycloheptan-1-yl)sulfonyl)-1-methoxyisoquinoline]
[1]
  expression of prostacyclin in endothelial cells: Detection result of test compound at low dose (0.4 μM): 275.40 ± 9.89 pg/mL
  expression of prostacyclin in endothelial cells: Detection result of test compound at medium dose (2 μM): 267.35 ± 10.69 pg/mL
  expression of prostacyclin in endothelial cells: Detection result of test compound at high dose (10 μM): 253.44 ± 12.48 pg/mL
[2]
  Cerebral hemorrhage volume score (x ± s): 12.83 ± 2.05
[3]
  nitric oxide secretion in endothelial cells: Detection result of test compound at low dose (0.4 μM): 0.997 ± 0.057 μm
  nitric oxide secretion in endothelial cells: Detection result of test compound at medium dose (2 μM): 1.068 ± 0.032 μm
  nitric oxide secretion in endothelial cells: Detection result of test compound at high dose (10 μM): 1.121 ± 0.006 μm
[4]
  IC50 at 24 h: 169 µM

## CCCC[C@@H]1CNCCCN1S(=O)(=O)c1cccc2c(O)nccc12 [Compound R-YK1611, (R)-5-((2-butyl-1,4-diazacycloheptan-1-yl)sulfonyl)isoquinolin-1-ol]
[1]
  expression of prostacyclin in endothelial cells: Detection result of test compound at low dose (0.4 μM): 232.61 ± 9.70 pg/mL
  expression of prostacyclin in endothelial cells: Detection result of test compound at medium dose (2 μM): 229.98 ± 11.41 pg/mL
  expression of prostacyclin in endothelial cells: Detection result of test compound at high dose (10 μM): 249.23 ± 0.75 pg/mL
[2]
  Cerebral hemorrhage volume score (x ± s): 12.41 ± 2.03
[3]
  nitric oxide secretion in endothelial cells: Detection result of test compound at low dose (0.4 μM): 1.095 ± 0.095 μm
  nitric oxide secretion in endothelial cells: Detection result of test compound at medium dose (2 μM): 1.109 ± 0.087 μm
  nitric oxide secretion in endothelial cells: Detection result of test compound at high dose (10 μM): 1.125 ± 0.016 μm
[4]
  IC50 at 24 h: 284 µM

## COc1nccc2c(S(=O)(=O)N3CCCNC[C@H]3CCC(C)C)cccc12 [Compound R-YK1612, (R)-5-((2-isopentyl-1,4-diazacycloheptan-1-yl)sulfonyl)-1-methoxyisoquinoline]
[1]
  expression of prostacyclin in endothelial cells: Detection result of test compound at low dose (0.4 μM): 269.40 ± 8.89 pg/mL
  expression of prostacyclin in endothelial cells: Detection result of test compound at medium dose (2 μM): 269.35 ± 8.69 pg/mL
  expression of prostacyclin in endothelial cells: Detection result of test compound at high dose (10 μM): 257.44 ± 4.48 pg/mL
[2]
  Cerebral hemorrhage volume score (x ± s): 13.05 ± 1.96
[3]
  nitric oxide secretion in endothelial cells: Detection result of test compound at low dose (0.4 μM): 0.960 ± 0.134 μm
  nitric oxide secretion in endothelial cells: Detection result of test compound at medium dose (2 μM): 1.021 ± 0.006 μm
  nitric oxide secretion in endothelial cells: Detection result of test compound at high dose (10 μM): 1.114 ± 0.006 μm
[4]
  IC50 at 24 h: 176 µM

## O=S(=O)(c1cccc2cnccc12)N1CCCNCC1 [Fasudil hydrochloride, reference compound]
[1]
  expression of prostacyclin in endothelial cells: Detection result of test compound at low dose (0.4 μM): 259.07 ± 40.07 pg/mL
  expression of prostacyclin in endothelial cells: Detection result of test compound at medium dose (2 μM): 208.85 ± 37.07 pg/mL
  expression of prostacyclin in endothelial cells: Detection result of test compound at high dose (10 μM): 184.93 ± 1.09 pg/mL
[1]; low concentration
  effect on the expression of prostacyclin (in words): promoted the expression of prostacyclin
[1]; medium and high concentrations
  effect on the expression of prostacyclin (in words): inhibited the expression
[2]
  Cerebral hemorrhage volume score (x ± s): 10.25 ± 3.24
[3]
  nitric oxide secretion in endothelial cells: Detection result of test compound at low dose (0.4 μM): 1.131 ± 0.045 μm
  nitric oxide secretion in endothelial cells: Detection result of test compound at medium dose (2 μM): 1.356 ± 0.045 μm
  nitric oxide secretion in endothelial cells: Detection result of test compound at high dose (10 μM): 1.450 ± 0.000 μm
[4]
  IC50 at 24 h: 75.7 µM
